According to ChEMBL document CHEMBL1147619, “Syntheses and EGFR kinase inhibitory activity of 6-substituted-4-anilino [1,7] and [1,8] naphthyridine-3-carbonitriles” (Bioorg Med Chem Lett, 2004):
≈ marks a conversion by molar mass, not a printed value.

Key:
[1] = test system: SW-620; assay: Inhibition of SW620 human carcinoma cell proliferation; assay type: functional, cell-based
[2] = target: T1, Epidermal growth factor receptor (Homo sapiens, UniProt P00533); assay: Inhibition of epidermal growth factor receptor kinase autophosphorylation
[3] = test system: SK-BR-3; assay: Inhibition of SKBr3 human carcinoma cell proliferation; assay type: functional, cell-based
[4] = test system: A-431; assay: Inhibition of A431 human carcinoma cell proliferation; assay type: functional, cell-based
[5] = target: T1, Epidermal growth factor receptor; assay: Inhibition of peptide substrate phosphorylation by epidermal growth factor receptor

T1 sequence (P00533 whole entry): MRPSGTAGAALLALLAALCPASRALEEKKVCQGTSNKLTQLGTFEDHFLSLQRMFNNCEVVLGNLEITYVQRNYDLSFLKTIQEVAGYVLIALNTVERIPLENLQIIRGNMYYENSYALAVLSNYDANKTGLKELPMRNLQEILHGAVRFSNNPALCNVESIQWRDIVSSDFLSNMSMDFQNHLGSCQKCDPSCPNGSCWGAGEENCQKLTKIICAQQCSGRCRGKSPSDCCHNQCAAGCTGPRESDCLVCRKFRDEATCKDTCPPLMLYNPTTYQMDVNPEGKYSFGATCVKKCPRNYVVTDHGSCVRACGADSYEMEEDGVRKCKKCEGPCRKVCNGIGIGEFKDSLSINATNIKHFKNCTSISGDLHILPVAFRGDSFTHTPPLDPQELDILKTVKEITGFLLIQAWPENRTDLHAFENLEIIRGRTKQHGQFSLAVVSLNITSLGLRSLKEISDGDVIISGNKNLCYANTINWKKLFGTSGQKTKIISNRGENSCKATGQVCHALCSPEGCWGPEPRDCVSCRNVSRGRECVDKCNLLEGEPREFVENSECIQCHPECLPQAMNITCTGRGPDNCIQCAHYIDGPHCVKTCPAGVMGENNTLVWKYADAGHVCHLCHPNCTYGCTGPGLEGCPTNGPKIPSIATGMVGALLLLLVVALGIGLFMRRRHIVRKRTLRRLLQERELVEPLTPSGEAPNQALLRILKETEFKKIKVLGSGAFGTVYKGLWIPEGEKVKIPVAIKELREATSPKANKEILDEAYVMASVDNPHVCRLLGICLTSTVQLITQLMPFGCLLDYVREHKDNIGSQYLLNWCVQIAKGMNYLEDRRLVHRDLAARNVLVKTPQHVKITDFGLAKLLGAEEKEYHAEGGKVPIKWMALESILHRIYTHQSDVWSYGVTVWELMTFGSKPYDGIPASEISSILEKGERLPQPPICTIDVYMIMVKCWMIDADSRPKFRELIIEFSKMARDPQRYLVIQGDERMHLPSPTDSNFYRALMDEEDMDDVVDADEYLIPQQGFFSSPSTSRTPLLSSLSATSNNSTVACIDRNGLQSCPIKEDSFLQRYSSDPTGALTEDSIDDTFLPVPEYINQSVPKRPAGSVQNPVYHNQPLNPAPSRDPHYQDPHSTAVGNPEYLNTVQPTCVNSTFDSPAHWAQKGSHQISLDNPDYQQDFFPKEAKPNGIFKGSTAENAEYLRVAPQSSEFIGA

Row | Structure (SMILES) | IC50 [1] [µg/mL] | IC50 [2] [nM] | IC50 [3] [µg/mL] | IC50 [4] [µg/mL] | IC50 [5] [nM]
1 | CN(C)C/C=C/C(=O)Nc1ccc2ncc(C#N)c(Nc3cccc(Br)c3)c2c1 | 2.8 (≈ 6.22 µM) | 123 | 0.089 (≈ 0.198 µM) | 0.23 (≈ 0.511 µM) | 37.2
2 | C=CC(=O)Nc1ccc2ncc(C#N)c(Nc3cccc(Br)c3)c2c1 |  | 86.9 |  |  | 9.7
3 | C=CC(=O)Nc1cnc2ncc(C#N)c(Nc3cccc(Br)c3)c2c1 |  | 976 |  |  | 375
4 | CN(C)C/C=C/C(=O)Nc1cc2c(Nc3cccc(Br)c3)c(C#N)cnc2cn1 | 0.356 (≈ 0.789 µM) | 8.6 | 0.036 (≈ 0.0798 µM) | 0.088 (≈ 0.195 µM) | 1.9
5 | CN(C)CCOc1cc2c(Nc3cccc(Br)c3)c(C#N)cnc2cn1 |  | > 10000 |  |  | > 10000

Results, then the compound that gave them:

Row | IC50 [1] [µg/mL] | IC50 [2] [nM] | IC50 [3] [µg/mL] | IC50 [4] [µg/mL] | IC50 [5] [nM] | Structure (SMILES)
6 |  | > 10000 |  |  | > 10000 | CN(C)CCOc1cc2c(Nc3ccc(F)c(Cl)c3)c(C#N)cnc2cn1
7 |  | > 1000 |  |  | 259 | CC#CC(=O)Nc1ccc2ncc(C#N)c(Nc3cccc(Br)c3)c2c1
8 |  | 6790 |  |  | 3760 | CC#CC(=O)Nc1cnc2ncc(C#N)c(Nc3ccc(F)c(Cl)c3)c2c1
9 |  | 1030 |  |  | 330 | CC#CC(=O)Nc1ccc2ncc(C#N)c(Nc3ccc(F)c(Cl)c3)c2c1
10 |  | > 10000 |  |  | 6270 | CC#CC(=O)Nc1cnc2ncc(C#N)c(Nc3cccc(Br)c3)c2c1
11 | > 5 | 4130 | 4.83 (≈ 10.7 µM) | 2.76 (≈ 6.12 µM) | 2040 | CN(C)C/C=C/C(=O)Nc1cnc2ncc(C#N)c(Nc3cccc(Br)c3)c2c1
